Laboratory results from paper PMC7438494 (Communications Biology, 2020).
Where “and” joins values, the source holds several entries; their conditions need not be identical. Identical values can stand only once. Like-named read-outs stand apart in the source and are kept apart here.

Target: human ATP synthase (Homo sapiens, UniProt P00846+P05496)
Assay: biochemical
Format: biochemical
Conditions: for cyanide sensitive ATP produced, nmol/min/mg / cyanide sensitive ATP produced, pmol/min/mg: 60 min
[1] = BDQ 5e-6 uM, […], frozen human mito, BDQ in DMSO
[2] = BDQ 5e-6 uM, cyanide sensitive, frozen human mito, BDQ in DMSO
[3] = BDQ 5e-5 uM, […], frozen human mito, BDQ in DMSO
[4] = BDQ 5e-5 uM, cyanide sensitive, frozen human mito, BDQ in DMSO
[5] = BDQ 0.0005 uM, […], frozen human mito, BDQ in DMSO
[6] = BDQ 0.0005 uM, cyanide sensitive, frozen human mito, BDQ in DMSO
[7] = BDQ 0.0005 uM, cyanide sensitive, human
[8] = BDQ 0.005 uM, […], frozen human mito, BDQ in DMSO
[9] = BDQ 0.005 uM, cyanide sensitive, frozen human mito, BDQ in DMSO
[10] = BDQ 0.005 uM, cyanide sensitive, human
[11] = BDQ 0.05 uM, cyanide sensitive, human
[12] = BDQ 0.1 uM, […], frozen human mito, BDQ in DMSO
[13] = BDQ 0.1 uM, cyanide sensitive, frozen human mito, BDQ in DMSO
[14] = BDQ 0.1 uM, cyanide sensitive, human
[15] = BDQ 0.2 uM, […], frozen human mito, BDQ in DMSO
[16] = BDQ 0.2 uM, cyanide sensitive, frozen human mito, BDQ in DMSO
[17] = BDQ 0.2 uM, cyanide sensitive, human
[18] = BDQ 0.5 uM, […], frozen human mito, BDQ in DMSO
[19] = BDQ 0.5 uM, cyanide sensitive, frozen human mito, BDQ in DMSO

COc1nc2ccc(Br)cc2cc1[C@@H](c1ccccc1)[C@@](O)(CCN(C)C)c1cccc2ccccc12 [BDQ, Bedaquiline]
ATP synthesis: 7.2 nmol/min/mg
inhibition at 0.85 µM: 46%
% activity, cyanide sensitive [1]: 78.2096%
% inhibition, cyanide sensitive [1]: 21.7904%
ATP produced, nmol/min/mg [1]: 6.85 nmol/min/mg
ATP produced, pmol/min/mg [1]: 6850.84 pmol/min/mg
cyanide sensitive ATP produced, nmol/min/mg [2]: 5.63 nmol/min/mg
cyanide sensitive ATP produced, pmol/min/mg [2]: 5632.76 pmol/min/mg
Cyanide sensitive ATP synthesis (BDQ 5e-6 uM, cyanide sensitive, human): 6.1 nmol/min/mg and 8.3 nmol/min/mg
% activity, cyanide sensitive [3]: 74.3127%
% inhibition, cyanide sensitive [3]: 25.6873%
ATP produced, nmol/min/mg [3]: 6.57 nmol/min/mg
ATP produced, pmol/min/mg [3]: 6570.19 pmol/min/mg
cyanide sensitive ATP produced, nmol/min/mg [4]: 5.35 nmol/min/mg
cyanide sensitive ATP produced, pmol/min/mg [4]: 5352.10 pmol/min/mg
Cyanide sensitive ATP synthesis (BDQ 5e-5 uM, cyanide sensitive, human): 5.6 nmol/min/mg and 8.1 nmol/min/mg
% activity [5]: 84.5005%
% inhibition [5]: 15.4995%
ATP produced, nmol/min/mg [5]: 7.12 nmol/min/mg
ATP produced, pmol/min/mg [5]: 7115.12 pmol/min/mg
activity at 0.0005 µM (BDQ 0.0005 uM, […], frozen human mito, BDQ in DMSO, read-out: % activity): 84.5%
activity at 0.0005 µM (BDQ 0.0005 uM, […], frozen human mito, BDQ in DMSO, read-out: % activity, cyanide sensitive): 81.9%
inhibition at 0.0005 µM (BDQ 0.0005 uM, […], frozen human mito, BDQ in DMSO, read-out: % inhibition): 15.5%
inhibition at 0.0005 µM (BDQ 0.0005 uM, […], frozen human mito, BDQ in DMSO, read-out: % inhibition, cyanide sensitive): 18.1%
cyanide sensitive ATP produced, nmol/min/mg [6]: 5.90 nmol/min/mg
cyanide sensitive ATP produced, pmol/min/mg [6]: 5897.03 pmol/min/mg
Cyanide sensitive ATP synthesis [7]: 7.7 nmol/min/mg and 4.7 nmol/min/mg and 7.8 nmol/min/mg
cyanide sensitive % activity [7]: 71.1%
activity at 0.0005 µM (BDQ 0.0005 uM, cyanide sensitive, human, read-out: cyanide sensitive % activity): 81.5%
inhibition at 0.0005 µM (BDQ 0.0005 uM, cyanide sensitive, human, read-out: cyanide sensitive % inhibition): 18.5%
% activity [8]: 99.3902%
% inhibition [8]: 0.6098%
ATP produced, nmol/min/mg [8]: 8.37 nmol/min/mg
ATP produced, pmol/min/mg [8]: 8368.87 pmol/min/mg
activity at 0.005 µM (BDQ 0.005 uM, […], frozen human mito, BDQ in DMSO, read-out: % activity): 99.4%
activity at 0.005 µM (BDQ 0.005 uM, […], frozen human mito, BDQ in DMSO, read-out: % activity, cyanide sensitive): 99.3%
inhibition at 0.005 µM (BDQ 0.005 uM, […], frozen human mito, BDQ in DMSO, read-out: % inhibition): 0.6%
inhibition at 0.005 µM (BDQ 0.005 uM, […], frozen human mito, BDQ in DMSO, read-out: % inhibition, cyanide sensitive): 0.713%
cyanide sensitive ATP produced, nmol/min/mg [9]: 7.15 nmol/min/mg
cyanide sensitive ATP produced, pmol/min/mg [9]: 7150.78 pmol/min/mg
Cyanide sensitive ATP synthesis [10]: 8.3 nmol/min/mg and 4.6 nmol/min/mg and 7.9 nmol/min/mg
cyanide sensitive % activity [10]: 72.3%
activity at 0.005 µM (BDQ 0.005 uM, cyanide sensitive, human, read-out: cyanide sensitive % activity): 88.5%
Cyanide sensitive ATP synthesis [11]: 6.8 nmol/min/mg and 4.7 nmol/min/mg and 3.8 nmol/min/mg
cyanide sensitive % activity [11]: 71.8% and 64.1% and 43.8%
cyanide sensitive % inhibition [11]: 28.2% and 35.9% and 56.2%
% activity [12]: 65.6953%
% inhibition [12]: 34.3047%
ATP produced, nmol/min/mg [12]: 5.53 nmol/min/mg
ATP produced, pmol/min/mg [12]: 5531.68 pmol/min/mg
activity at 0.1 µM (BDQ 0.1 uM, […], frozen human mito, BDQ in DMSO, read-out: % activity): 65.7%
activity at 0.1 µM (BDQ 0.1 uM, […], frozen human mito, BDQ in DMSO, read-out: % activity, cyanide sensitive): 59.9%
inhibition at 0.1 µM (BDQ 0.1 uM, […], frozen human mito, BDQ in DMSO, read-out: % inhibition): 34.3%
inhibition at 0.1 µM (BDQ 0.1 uM, […], frozen human mito, BDQ in DMSO, read-out: % inhibition, cyanide sensitive): 40.1%
cyanide sensitive ATP produced, nmol/min/mg [13]: 4.31 nmol/min/mg
cyanide sensitive ATP produced, pmol/min/mg [13]: 4313.60 pmol/min/mg
Cyanide sensitive ATP synthesis [14]: 8.1 nmol/min/mg and 6.1 nmol/min/mg and 5.4 nmol/min/mg and 6.3 nmol/min/mg and 7.4 nmol/min/mg
cyanide sensitive % activity [14]: 86.0% and 84.3% and 62.0% and 71.2% and 67.2%
% activity [15]: 69.7127%
% inhibition [15]: 30.2873%
ATP produced, nmol/min/mg [15]: 5.87 nmol/min/mg
ATP produced, pmol/min/mg [15]: 5869.95 pmol/min/mg
activity at 0.2 µM (BDQ 0.2 uM, […], frozen human mito, BDQ in DMSO, read-out: % activity): 69.7%
activity at 0.2 µM (BDQ 0.2 uM, […], frozen human mito, BDQ in DMSO, read-out: % activity, cyanide sensitive): 64.6%
inhibition at 0.2 µM (BDQ 0.2 uM, […], frozen human mito, BDQ in DMSO, read-out: % inhibition): 30.3%
inhibition at 0.2 µM (BDQ 0.2 uM, […], frozen human mito, BDQ in DMSO, read-out: % inhibition, cyanide sensitive): 35.4%
cyanide sensitive ATP produced, nmol/min/mg [16]: 4.65 nmol/min/mg
cyanide sensitive ATP produced, pmol/min/mg [16]: 4651.87 pmol/min/mg
Cyanide sensitive ATP synthesis [17]: 5.6 nmol/min/mg and 4.0 nmol/min/mg and 5.2 nmol/min/mg and 4.4 nmol/min/mg and 5.1 nmol/min/mg
cyanide sensitive % activity [17]: 55.4% and 59.9% and 49.8% and 46.9%
cyanide sensitive % inhibition [17]: 44.6% and 40.1% and 50.2% and 53.1%
activity at 0.2 µM (BDQ 0.2 uM, cyanide sensitive, human, read-out: cyanide sensitive % activity): 59.5%
inhibition at 0.2 µM (BDQ 0.2 uM, cyanide sensitive, human, read-out: cyanide sensitive % inhibition): 40.5%
% activity [18]: 36.7347%
% inhibition [18]: 63.2653%
ATP produced, nmol/min/mg [18]: 3.09 nmol/min/mg
ATP produced, pmol/min/mg [18]: 3093.14 pmol/min/mg
activity at 0.5 µM (BDQ 0.5 uM, […], frozen human mito, BDQ in DMSO, read-out: % activity): 36.7%
activity at 0.5 µM (BDQ 0.5 uM, […], frozen human mito, BDQ in DMSO, read-out: % activity, cyanide sensitive): 26%
inhibition at 0.5 µM (BDQ 0.5 uM, […], frozen human mito, BDQ in DMSO, read-out: % inhibition): 63.3%
inhibition at 0.5 µM (BDQ 0.5 uM, […], frozen human mito, BDQ in DMSO, read-out: % inhibition, cyanide sensitive): 74%
cyanide sensitive ATP produced, nmol/min/mg [19]: 1.88 nmol/min/mg
cyanide sensitive ATP produced, pmol/min/mg [19]: 1875.05 pmol/min/mg
